Assay type in all cases: in vivo
For experiment [1], the system named is two-spotted spider mite (Tetranychus urticae). As to the kind of experiment: Insecticidal test for two-spotted spider mite, ovicide method. Conditions: ovicide method on cotton leaf discs, 6 days; for pest or weed control at 2.5 ppm: Tetranychus urticae, foliar, 144 h, read-out: SM: activity against two-spotted spider mite (% Control rating). The protocol: Insecticidal test for two-spotted spider mite (Tetranychus urticae) Ovicide Method: Ten adult female two-spotted spider mites were placed on eight 2.2 cm leaf discs of cotton leaf, allowed to oviposit over 24 hours, and thereafter removed. […] Discs were placed on an agar substrate and held at 24° C. and 90% RH for 6 days.

The subject of experiment [2] is cabbage looper (Trichoplusia ni). As to the kind of experiment: Insecticidal test for cabbage looper, treated cabbage leaf disc. As to conditions: 2nd instar larvae on dipped cabbage leaf discs, 5 days; for pest or weed control at 400 ppm: Trichoplusia ni, foliar, 120 h, read-out: CL: activity against cabbage looper (% Control rating). Here is the method:
(§1) Insecticidal test for tobacco budworm (Heliothis virescens), beet armyworm (Spodoptera exigua), and cabbage looper (Trichoplusia ni). To prepare test solution, the test compound was formulated at 400 ppm in 7.5 mL of 2 acetone:1 tap water. 250 μL of the test solution was pipetted upon the surface of 8 mL of lepidopteran diet (modified Shorey) contained in each of five one-ounce plastic cups (one cup=1 replication). […] After air-drying, the treated leaf discs were placed individually into one-ounce plastic cups. Each dried, treated cotton cotyledon disc was infested with a 2nd instar tobacco budworm larva, and each cabbage leaf disc was infested with a 2nd instar cabbage looper larva. Cups containing the treated substrates and larvae were capped and then held in a growth chamber at 25° C., 50-55% RH, and 14 hr light:10 hr dark for 5 days.

Experiment [3] has as its system beet armyworm (Spodoptera exigua). Nature of the experiment: Insecticidal test for beet armyworm, treated lepidopteran diet. Conditions: 2nd instar larvae on treated diet, 5 days; for pest or weed control at 400 ppm: Spodoptera exigua, 120 h, read-out: BAW: activity against beet armyworm (% Control rating). The protocol:
as §1

Experiment [4] concerns Sweetpotato Whitefly (Bemisia tabacia). As to the kind of experiment: Insecticidal test for Sweetpotato Whitefly, sprayed cotton plants. Conditions: 200 ppm spray, large nymphs counted after 13 days. The protocol: Insecticidal test for Sweetpotato Whitefly (Bemisia tabacia) Four mg of each test compound were dissolved by adding 4 mL of a 90:10 acetone:ethanol solvent mixture to the vial containing the sample compound. This solution was added to 16 mL of water containing 0.05% Tween 20 surfactant to produce 20 mL of a 200 ppm spray solution. Five-week-old cotton plants reared in a greenhouse were stripped of all foliage except for the two uppermost true leaves that were greater than 5 cm in diameter. These plants were then placed into a laboratory colony of whiteflies for two days for oviposition by the colony females. All whiteflies were then removed from the test plants with pressurized air. The spray solution was then applied to the test plants with a hand-held syringe fitted with hollow cone nozzle. One mL spray solution was applied to each leaf top and bottom for a total of 4 mL per plant. Four replications of each test compound utilized a total of 16 mL spray solution. Plants were air dried and then placed in a holding chamber (28° C. and 60% RH) for 13 days. Compound efficacy was evaluated by counting, under an illuminated magnifying glass, the number of large nymphs (3rd-4th instar) per leaf. Percent control based on reduction of large nymphs of a test compound compared to solution-only (no test compound) sprayed plants is reported in Table 1-8.

Experiment [5] deals with tobacco budworm (Heliothis virescens). Nature of the experiment: Insecticidal test for tobacco budworm, treated cotton cotyledon leaf disc. As to conditions: 2nd instar larvae on dipped cotton cotyledon discs, 5 days; for pest or weed control at 400 ppm: Heliothis virescens, foliar, 120 h, read-out: TBW: activity against tobacco budworm (% Control rating). Here is the method: as §1

The structures appear in SMILES notation.

On to `C[C@@H]1OC(c2c(F)cccc2F)=N[C@@H]1c1ccc(-c2ccc(C(F)(F)F)cc2)cc1` (mixture of isomers) [Compound 5, (4R,5S)- and 4S,5R)-2-(2,6-difluorophenyl)-5-methyl-4-[4′-(trifluoromethyl)-1,1′-biphenyl-4-yl]-4,5-dihydro-1,3-oxazole], for which, in experiment [1], the pest or weed control at 2.5 ppm is 90 to 100%. The pest or weed control at 400 ppm in experiment [2] and in experiment [3] was 90 to 100% in each case.
Regarding `C[C@H]1OC(c2c(F)cccc2F)=N[C@H]1c1ccc(-c2ccc(OC(F)(F)F)cc2)cc1` (racemic) [Compound 6, (4S,5R)- and (4R,5S)-2-(2,6-difluorophenyl)-4-(4′-trifluoromethoxy-1,1′-biphenyl-4-yl)-5-methyl-4,5-dihydro-1,3-oxazole], the “WF: activity against whitefly (% Control rating)” value in experiment [4] is “B (80-89)”.
In the case of `Cc1ccc(-c2ccc([C@@H]3N=C(c4c(F)cccc4F)O[C@@H]3C)cc2)cc1C` (racemic) [Compound 8, (4S,5R)- and (4R,5S)-2-(2,6-difluorophenyl)-4-(3′,4′-dimethyl-1,1′-biphenyl-4-yl)-5-methyl-4,5-dihydro-1,3-oxazole], the pest or weed control at 400 ppm in experiment [5] is 60 to 69%; in experiment [2] it was 90 to 100%; in experiment [3] it was 90 to 100%.
On to `CCOc1ccc(-c2ccc([C@H]3N=C(c4c(F)cccc4F)O[C@H]3C)cc2)cc1` (racemic) [Compound 12, (4R,5S)- and (4S,5R)-2-(2,6-difluorophenyl)-4-(4′-ethoxy-1,1′-biphenyl-4-yl)-5-methyl-4,5-dihydro-1,3-oxazole], for which the pest or weed control at 400 ppm is 80 to 89% in experiment [5], 90 to 100% in experiment [2] and 90 to 100% in experiment [3].
For `C[C@H]1OC(c2c(F)cccc2F)=NC1c1ccc(-c2ccc3c(c2)OC(F)(F)O3)cc1` (mixture of isomers) [Compound 13, (4R,5S)- and (4S,5R)-4-[4-(2,2-difluoro-1,3-benzodioxol-5-yl)phenyl]-2-(2,6-difluorophenyl)-5-methyl-4,5-dihydro-1,3-oxazole], the pest or weed control at 400 ppm in experiment [5] is less than 50%; in experiment [2] it was 90 to 100%.
`C[C@@H]1OC(c2c(F)cccc2F)=N[C@@H]1c1ccc(-c2ccccc2F)cc1` (racemic) [Compound 15, (4R,5S)- and (4S,5R)-2-(2,6-difluorophenyl)-4-(2′-fluoro-1,1′-biphenyl-4-yl)-5-methyl-4,5-dihydro-1,3-oxazole]: in experiment [2], the pest or weed control at 400 ppm was in the range of 90 to 100%.
With `Cc1ccccc1C1=N[C@H](c2ccc(Br)cc2)[C@H](C)O1` (racemic) [Compound 17, (4R,5S)- and (4S,5R)-4-(4-bromophenyl)-2-(2-methyl)-5-methyl-4,5-dihydro-1,3-oxazole], the pest or weed control at 400 ppm in experiment [5] and in experiment [2] was less than 50% each time.
For the molecule `C[C@H]1OC(c2c(F)cccc2Cl)=N[C@@H]1c1ccc(Br)cc1` (racemic) [Compound 23, (4R,5R)- and (4S,5S)-4-(4-bromophenyl)-2-(2-chloro-6-fluorophenyl)-5-methyl-4,5-dihydro-1,3-oxazole], the pest or weed control at 400 ppm in experiment [5] was 80 to 89%; in experiment [2], less than 50%. The pest or weed control at 2.5 ppm in experiment [1] lay within 90 to 100%.
In the case of `C[C@@H]1OC(c2c(F)cccc2F)=N[C@H]1c1ccc(-c2ccc(C(F)(F)F)cc2)cc1` (racemic) [Compound 26, (4S,5S)- and (4R,5R)-2-(2,6-difluorophenyl)-5-methyl-4-[4′-(trifluoromethyl)-1,1′-biphenyl-4-yl]-4,5-dihydro-1,3-oxazole], in experiment [1], the pest or weed control at 2.5 ppm fell in the range of 90 to 100%. The pest or weed control at 400 ppm in experiment [2] and in experiment [3] was 90 to 100% in each case.
Regarding `C[C@H]1OC(c2c(F)cccc2F)=N[C@@H]1c1ccc(-c2ccc(OC(F)(F)F)cc2)cc1` (racemic) [Compound 27, (4R,5R)- and (4S,5S)-2-(2,6-difluorophenyl)-4-(4′-trifluoromethoxy-1,1′-biphenyl-4-yl)-5-methyl-4,5-dihydro-1,3-oxazole], the “TBW: activity against tobacco budworm (% Control rating)” value in experiment [5] (400 ppm) is listed as “B (80-89)”. In experiment [1] (2.5 ppm), the “SM: activity against two-spotted spider mite (% Control rating)” value is “A (90-100)”. For the same molecule, the “CL: activity against cabbage looper (% Control rating)” value in experiment [2] (400 ppm) is recorded as “A (90-100)”. In addition, the “BAW: activity against beet armyworm (% Control rating)” value in experiment [3] (400 ppm) is “A (90-100)”.
`Cc1ccc(-c2ccc([C@@H]3N=C(c4c(F)cccc4F)O[C@H]3C)cc2)cc1C` (racemic) [Compound 29, (4S,5S)- and (4R,5R)-2-(2,6-difluorophenyl)-4-(3′,4′-dimethyl-1,1′-biphenyl-4-yl)-5-methyl-4,5-dihydro-1,3-oxazole]: in experiment [2], the pest or weed control at 400 ppm lay in the range of 90 to 100%.
With `C[C@@H]1OC(c2c(F)cccc2F)=N[C@H]1c1ccc(-c2ccccc2F)cc1` (racemic) [Compound 31, (4S,5S)- and (4R,5R)-2-(2,6-difluorophenyl)-4-(2′-fluoro-1,1′-biphenyl-4-yl)-5-methyl-4,5-dihydro-1,3-oxazole], the pest or weed control at 400 ppm in experiment [2] lay within 90 to 100%.
With `CCOc1ccc(-c2ccc([C@@H]3N=C(c4c(F)cccc4F)O[C@H]3C)cc2)cc1` (racemic) [Compound 33, (4S,5S)- and (4R,5R)-2-(2,6-difluorophenyl)-4-(4′-ethoxy-1,1′-biphenyl-4-yl)-5-methyl-4,5-dihydro-1,3-oxazole], the pest or weed control at 400 ppm was in the range of 80 to 89% in experiment [5], 90 to 100% in experiment [2] and 90 to 100% in experiment [3].
As to `C[C@H]1OC(c2c(F)cccc2F)=N[C@@H]1c1ccccc1` (racemic) [Compound 35, (4R,5R)- and (4S,5S)-4-phenyl-2-(2,6-difluorophenyl)-5-methyl-4,5-dihydro-1,3-oxazole], the pest or weed control at 400 ppm in experiment [5] and in experiment [2] was less than 50% in each case.
For `C[C@H]1OC(c2c(F)cccc2F)=N[C@H]1c1ccc(-c2ccc(OC(F)(F)F)cc2)cc1` (stereo in doubt) [Compound 49, (4S,5R)-2-(2,6-difluorophenyl)-5-methyl-4-[4′-(trifluoromethoxy)-1,1′-biphenyl-4-yl]-4,5-dihydro-1,3-oxazole], the pest or weed control at 400 ppm was in the range of 80 to 89% in experiment [5], 90 to 100% in experiment [2] and 90 to 100% in experiment [3]. For the same molecule, in experiment [4] (Bemisia, 312 h, read-out: WF: activity against whitefly (% Control rating)), the pest or weed control at 200 ppm is 80 to 89%. Besides, the pest or weed control at 2.5 ppm in experiment [1] was in the range of 90 to 100%.
For `C[C@@H]1OC(c2c(F)cccc2F)=N[C@H]1c1ccc(-c2ccc(OC(F)(F)F)cc2)cc1` [Compound 47, (4S,5S)-2-(2,6-difluorophenyl)-5-methyl-4-[4′-(trifluoromethoxy)-1,1′-biphenyl-4-yl]-4,5-dihydro-1,3-oxazole], in experiment [1], the pest or weed control at 2.5 ppm lay within 90 to 100%. The pest or weed control at 400 ppm in experiment [2] and in experiment [3] was 90 to 100% in each case.
`C[C@H]1OC(c2c(F)cccc2F)=N[C@@H]1c1ccc(-c2ccc(OC(F)(F)F)cc2)cc1` [Compound 53, (4R,5R)-2-(2,6-difluorophenyl)-5-methyl-4-[4′-(trifluoromethoxy)-1,1′-biphenyl-4-yl]-4,5-dihydro-1,3-oxazole]: in experiment [1], the pest or weed control at 2.5 ppm is 90 to 100%. In addition, the pest or weed control at 400 ppm in experiment [2] and in experiment [3] was 90 to 100% each time.

Values taken from patent US6573286B1, “2-(2,6-disubstituted phenyl)-4-aryl-5-alkyl-1,3-oxazoline compounds” (Dow AgroSciences LLC, priority 2002, dated 2003).
